Key:
[1] = Obese (ob/ob) mouse model, Study 2 (MOD-6031 chronic pharmacology); format: in vivo, male ob/ob mice; conditions: OXM 6000 nmoles/kg bid sc for 32 days
Experimental: Body weight, food and water intake were recorded daily. […] Body weight, food and water intake were measured daily.
Oral glucose tolerant test (OGTT) studies were performed on days 2 and day 30 (FIGS. 10 and 11, respectively).

GLP-1 receptor = GLP-1 receptor (Homo sapiens, UniProt P43220); conditions: cAMP Hunter CHO-K1 GLP1R
Chain of GLP-1 receptor (P43220 24-463): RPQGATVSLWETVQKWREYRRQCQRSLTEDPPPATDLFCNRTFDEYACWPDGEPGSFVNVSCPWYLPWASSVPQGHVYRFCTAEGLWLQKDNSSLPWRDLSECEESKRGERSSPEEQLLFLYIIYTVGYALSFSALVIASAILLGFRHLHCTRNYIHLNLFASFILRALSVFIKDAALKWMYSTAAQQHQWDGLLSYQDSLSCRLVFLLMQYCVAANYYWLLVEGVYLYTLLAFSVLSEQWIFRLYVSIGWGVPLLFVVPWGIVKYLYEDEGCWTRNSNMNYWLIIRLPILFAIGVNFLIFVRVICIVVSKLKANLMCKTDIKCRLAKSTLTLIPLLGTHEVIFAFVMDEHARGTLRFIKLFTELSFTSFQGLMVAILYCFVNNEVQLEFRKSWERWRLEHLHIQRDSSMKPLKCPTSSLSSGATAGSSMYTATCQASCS
Experimental: Cells cAMP concentrations were quantified by HTRF assay (Cisbio 62AM4PEB) and EC50 parameter was analyzed by PRISM software. The cAMP Hunter™ CHO-K1 GLP1R secretes cAMP upon binding of the ligand to the receptor. […] Ligands were diluted in diluent contains IBMX and were added in duplicate to the culture wells for 30 min at 37° C. with 5% CO2. […] The dose dependent curves were established and the binding affinities (EC50) of various ligands were calculated using PRISM software by applying the best fit dose response model (Four parameters).

Oxyntomodulin [OXM]
body weight reduction over the study [1]: 10.3% | higher GLP-1 receptor binding activation compared to the heterogeneous PEG30-FMS-OXM (GLP-1 receptor): 5.9 fold

Source: patent US9821070B2 (OPKO Biologics Ltd., priority 2012, dated 2017)
